{"source": "patent US20150258197A1", "about": "“EUTECTIC ISOMETHEPTENE MUCATE” (TONIX PHARMA HOLDINGS LIMITED, priority 2014, published 2015)", "key": {"[1]": {"conditions": "cited from earlier work"}, "[2]": {"test_system": "imidazoline-1 (I1) receptor", "conditions": "cited from earlier work"}, "[3]": {"test_system": "mice", "test": "Formalin Test, late phase (licking score)", "format": "in vivo", "conditions": "mouse, 5% formalin intraplantar, three doses p.o. 15 minutes before the test, 15-50 min after formalin", "text": "(§1) Common mouse models for pain include the Formalin Test (Wheeler-Aceto, et al., Psychopharmacology, 104, 35-44, 1991), the Hot Plate Test (Eddy and Leimbach, J. Pharmacol. Exp. Ther., 107, 385-393, 1953), and the Tail-flick Test (D'Amour and Smith, J. Pharmacol. Exp. Ther., 1, 74-79, 1941). These methods detect analgesic activity of compositions of interest. In the Formalin Test, mice are given an intraplantar injection of 5% formalin into one posterior hindpaw to induce paw licking. Test compositions are given to the mice before treatment with formalin and the mice are evaluated and compared to a control group. In the Hot Plate Test, mice are placed onto a hot metal plate maintained at 54° C. and the latency to the first foot-lick is measured. As with the Formalin test, compositions of interest are given to the mice before the test and the mice are evaluated and compared to a control group. In the Tail-flick Test, a mouse's tail is heated by means of a thermal light source, and the latency before the animal withdraws its tail is measured. […]\nMice were given an intraplantar injection of 5% formalin (25 μL) into one posterior hindpaw. […] Mice were briefly observed at one minute intervals between 15 and 50 minutes after the injection of formalin and the number of occasions that the mice were observed licking the injected paw was recorded. […]"}, "[4]": {"test_system": "mice", "test": "Hot Plate Test", "format": "in vivo", "conditions": "mouse, hot plate 54° C., 10, 30 and 100 mg/kg p.o. 15 minutes before the test", "text": "as §1\nMice were placed onto a hot metal plate maintained at 54° C. surrounded by a Plexiglas cylinder (height: 13 cm; diameter: 19 cm). The latency to the first foot-lick was measured (maximum: 30 seconds). […]\nData with the test substance were analyzed by comparing treated groups with vehicle control using ANOVA followed by post-hoc Dunnett's tests. […]"}, "[5]": {"test_system": "mice", "test": "Tail-flick Test", "format": "in vivo", "conditions": "mouse, thermal light source, three doses (10, 30, 100) p.o. 15 minutes before the test", "text": "Common mouse models for pain include the Formalin Test (Wheeler-Aceto, et al., Psychopharmacology, 104, 35-44, 1991), the Hot Plate Test (Eddy and Leimbach, J. Pharmacol. Exp. Ther., 107, 385-393, 1953), and the Tail-flick Test (D'Amour and Smith, J. Pharmacol. Exp. Ther., 1, 74-79, 1941). These methods detect analgesic activity of compositions of interest. In the Formalin Test, mice are given an intraplantar injection of 5% formalin into one posterior hindpaw to induce paw licking. Test compositions are given to the mice before treatment with formalin and the mice are evaluated and compared to a control group. In the Hot Plate Test, mice are placed onto a hot metal plate maintained at 54° C. and the latency to the first foot-lick is measured. As with the Formalin test, compositions of interest are given to the mice before the test and the mice are evaluated and compared to a control group. In the Tail-flick Test, a mouse's tail is heated by means of a thermal light source, and the latency before the animal withdraws its tail is measured. Test compositions are administered before the test, and compared with a vehicle control group. The analgesic activity of the compositions described herein can be identified using the mouse formalin, hot plate, and tail-flick tests.\nA method for detecting analgesic activity followed that described by D'Amour and Smith (J. Pharmacol. Exp. Ther., 1, 74-79, 1941). The mouse's tail was heated by means of a thermal light source (20 volts). The latency before the animal withdraws its tail was measured (maximum: 15 seconds).\nTen mice were studied per group. The test was performed partially blind.\nThe test substances selected from (R)-isometheptene mucate, and (S)-isometheptene mucate were evaluated at three doses ([…]), administered p.o. 15 minutes before the test, and compared with a vehicle control group. […]\nData with the test substance were analyzed by comparing treated groups with vehicle control using ANOVA followed by post-hoc Dunnett's tests. Data with the reference substance were analyzed using unpaired Student's t tests."}, "[6]": {"conditions": "compared with (S)-isometheptene"}}}
{"smiles": "CNC(C)CCC=C(C)C", "note": "(racemic) [Racemic isometheptene, reference compound]", "values": [{"measurement": "Heart rate and diastolic blood pressure", "setting": "[1]; in vivo", "result": "increase"}]}
{"smiles": "CN[C@H](C)CCC=C(C)C", "note": "[(R)-isometheptene]", "values": [{"measurement": "Binding affinity for the imidazoline-1 (I1) receptor", "setting": "[2]", "result": "significant binding affinity"}, {"measurement": "I1 affinity relative to (S)-isometheptene", "setting": "[2]; [6]", "result": "higher affinity"}, {"measurement": "Potential adverse effects to the cardiovascular system relative to (S)-isometheptene", "setting": "[1]; [6]", "result": "lower potential adverse effects"}]}
{"smiles": "CN[C@@H](C)CCC=C(C)C", "note": "[(S)-isometheptene mucate]", "values": [{"measurement": "Licking score compared to vehicle", "setting": "[3]", "result": "reduction in licking score"}, {"measurement": "Foot-licking latency compared to vehicle", "setting": "[4]", "result": "longer foot-licking latency times"}, {"measurement": "Tail flick latency compared to vehicle", "setting": "[5]", "result": "longer tail flick latency times"}]}
